Assay results as given in paper PMC5908784, “Extracellular loops 2 and 3 of the calcitonin receptor selectively modify agonist binding and efficacy” (Biochemical Pharmacology, 2018).
Where a chain is given by its changes, count along the chain named. Like-named read-outs stand apart in the source and are kept apart here. Where a SMILES comes first, the peptide text is derived from it. Bridges are numbered along the chain shown (N, C = ends).

Assays:
Assay in all cases: ERK1/2 phosphorylation
Type in all cases: cell-based
hCTR L291A = target: T1, hCTR L291A (Homo sapiens, UniProt P30988, L291A); details: CV1-FlpIn cells, mean ± S.E.M.; for Emax: pERK maximal response
T1 construct: expressed in transfected cells
T1 sequence (P30988 25-474 L291A): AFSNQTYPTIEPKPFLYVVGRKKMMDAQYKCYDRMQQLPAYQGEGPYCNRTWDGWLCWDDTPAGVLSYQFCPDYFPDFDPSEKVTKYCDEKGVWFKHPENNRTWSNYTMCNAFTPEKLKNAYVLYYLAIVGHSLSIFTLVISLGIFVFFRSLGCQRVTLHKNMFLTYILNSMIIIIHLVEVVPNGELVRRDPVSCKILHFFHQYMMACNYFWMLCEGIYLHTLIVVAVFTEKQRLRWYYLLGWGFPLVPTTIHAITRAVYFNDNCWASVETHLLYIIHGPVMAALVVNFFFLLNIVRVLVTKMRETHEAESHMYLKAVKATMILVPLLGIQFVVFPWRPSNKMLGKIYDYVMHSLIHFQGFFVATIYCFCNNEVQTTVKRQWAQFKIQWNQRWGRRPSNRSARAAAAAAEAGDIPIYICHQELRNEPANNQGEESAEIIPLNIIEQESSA
In short: (§1)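 Overnight-plated cells at 2.5 × 10^4/well are stimulated, and ERK1/2 phosphorylation is referenced to the 10% FBS response at 6 min before logistic curve fitting.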

hCTR P363A = target: T2, hCTR P363A (Homo sapiens, UniProt P30988, P363A); details: CV1-FlpIn cells, mean ± S.E.M.; for Emax: pERK maximal response
T2 construct: expressed in transfected cells
T2 sequence (P30988 25-474 P363A): T1 sequence (P30988 25-474 L291A) with A267L, P339A
In short: as §1

hCTR V358A = target: T3, hCTR V358A (Homo sapiens, UniProt P30988, V358A); details: CV1-FlpIn cells, mean ± S.E.M.; for Emax: pERK maximal response; for EC50: pERK, three-parameter logistic fit
T3 construct: c-Myc (N); expressed in transfected cells
T3 sequence (P30988 25-474 V358A): T1 sequence (P30988 25-474 L291A) with A267L, V334A
In short: as §1

hCTR W361A = target: T4, hCTR W361A (Homo sapiens, UniProt P30988, W361A); details: for Emax: read-out: Emax (% WT); for EC50: pERK, three-parameter logistic fit
T4 construct: expressed in transfected cells
T4 sequence (P30988 25-474 W361A): T1 sequence (P30988 25-474 L291A) with A267L, W337A
In short: as §1

hCTR Y299A = target: T5, hCTR Y299A (Homo sapiens, UniProt P30988, Y299A); details: CV1-FlpIn cells, mean ± S.E.M.; for Emax: pERK maximal response
T5 construct: c-Myc (N); expressed in transfected cells
T5 sequence (P30988 25-474 Y299A): T1 sequence (P30988 25-474 L291A) with A267L, Y275A
In short: as §1

[1] = pERK maximal response, hCTR W361A, CV1-FlpIn cells, mean ± S.E.M.
[2] = hCTR W361A, CV1-FlpIn cells, mean ± S.E.M.
[3] = pERK, three-parameter logistic fit

Row | EC50 (hCTR V358A) [nM] | Emax (hCTR W361A; [1]) [%] | EC50 (hCTR W361A; [2]) [nM] | EC50 (hCTR L291A; [3]) [nM] | EC50 (hCTR P363A; [3]) [nM] | EC50 (hCTR Y299A; [3]) [nM] | SMILES | Emax (hCTR L291A) [%] | Emax (hCTR P363A) [%] | Emax (hCTR V358A) [%] | Emax (hCTR W361A) [%] | Emax (hCTR Y299A) [%]
1 | – | – | – | – | – | – | CC[C@H](C)[C@H](NC(=O)[C@H](C)NC(=O)[C@@H](NC(=O)[C@H](CCC(N)=O)NC(=O)[C@@H]1CCCN1C(=O)[C@H](Cc1ccccc1)NC(=O)[C@@H](NC(=O)[C@H](Cc1c[nH]cn1)NC(=O)[C@H](Cc1ccccc1)NC(=O)[C@H](CCCCN)NC(=O)[C@H](CC(N)=O)NC(=O)[C@H](Cc1ccccc1)NC(=O)[C@H](CC(=O)O)NC(=O)[C@H](CCC(N)=O)NC(=O)[C@@H](NC(=O)[C@H](Cc1ccc(O)cc1)NC(=O)[C@@H](NC(=O)CNC(=O)[C@H](CC(C)C)NC(=O)[C@H](CCSC)NC(=O)[C@@H]1CSSC[C@H](N)C(=O)NCC(=O)N[C@@H](CC(N)=O)C(=O)N[C@@H](CC(C)C)C(=O)N[C@@H](CO)C(=O)N[C@@H]([C@@H](C)O)C(=O)N1)[C@@H](C)O)[C@@H](C)O)[C@@H](C)O)[C@@H](C)O)C(=O)NCC(=O)N[C@H](C(=O)NCC(=O)N[C@@H](C)C(=O)N1CCC[C@H]1C(N)=O)C(C)C [hCT] | 72 ± 9 | 64 ± 6 | 160 ± 10 | 112 ± 6 | 56 ± 6
2 | 32.4 | 49 ± 8 | 117 | – | – | – | CC(C)C[C@H](NC(=O)CNC(=O)[C@H](C)NC(=O)[C@H](CC(C)C)NC(=O)[C@H](CCCNC(=N)N)NC(=O)[C@H](Cc1cnc[nH]1)NC(=O)[C@@H](NC(=O)[C@@H](NC(=O)[C@@H]1CSSC[C@H](NC(=O)[C@H](C)N)C(=O)N[C@@H](CC(=O)O)C(=O)N[C@@H]([C@@H](C)O)C(=O)N[C@@H](C)C(=O)N[C@@H]([C@@H](C)O)C(=O)N1)C(C)C)[C@@H](C)O)C(=O)N[C@@H](CC(C)C)C(=O)N[C@@H](CO)C(=O)N[C@@H](CCCNC(=N)N)C(=O)N[C@@H](CO)C(=O)NCC(=O)NCC(=O)N[C@H](C(=O)N[C@H](C(=O)N[C@@H](CCCCN)C(=O)N[C@@H](CC(N)=O)C(=O)N[C@@H](CC(N)=O)C(=O)N[C@@H](Cc1ccccc1)C(=O)N[C@H](C(=O)N1CCC[C@H]1C(=O)N[C@H](C(=O)N[C@@H](CC(N)=O)C(=O)N[C@H](C(=O)NCC(=O)N[C@@H](CO)C(=O)N[C@@H](CCCCN)C(=O)N[C@@H](C)C(=O)N[C@@H](Cc1ccccc1)C(N)=O)C(C)C)[C@@H](C)O)C(C)C)C(C)C)C(C)C [hαCGRP] | – | – | 39 ± 8 | – | –
3 | 2.24 | 76 ± 6 | 6.31 | 9.55 | 5.75 | 0.933 | CSCC[C@H](NC(=O)CNC(=O)[C@H](CO)NC(=O)[C@H](Cc1ccccc1)NC(=O)[C@H](CCCNC(=N)N)NC(=O)[C@H](Cc1c[nH]cn1)NC(=O)[C@H](Cc1ccccc1)NC(=O)[C@H](CC(N)=O)NC(=O)[C@H](CC(N)=O)NC(=O)[C@H](CC(C)C)NC(=O)[C@H](CC(N)=O)NC(=O)[C@H](CCCNC(=N)N)NC(=O)[C@H](Cc1c[nH]c2ccccc12)NC(=O)[C@H](Cc1ccc(O)cc1)NC(=O)[C@H](C)NC(=O)[C@H](CO)NC(=O)[C@H](CC(C)C)NC(=O)[C@@H](NC(=O)[C@@H]1CSSC[C@H](N)C(=O)N[C@@H](CO)C(=O)N[C@@H](CC(N)=O)C(=O)N[C@@H](CC(C)C)C(=O)N[C@@H](CO)C(=O)N[C@@H]([C@@H](C)O)C(=O)N1)C(C)C)C(=O)NCC(=O)N[C@@H](Cc1ccccc1)C(=O)NCC(=O)N1CCC[C@H]1C(=O)N[C@@H](CCC(=O)O)C(=O)N[C@H](C(=O)N1CCC[C@H]1C(N)=O)[C@@H](C)O [pCT] (H-CSNLSTCVLSAYWRNLNNFHRFSGMGFGPETP-NH2; disulfide 1-7) | 77 ± 5 | 39 ± 2 | 101 ± 8 | – | 51 ± 3
4 | – | – | – | – | – | – | CC(C)C[C@H](NC(=O)[C@H](CC(N)=O)NC(=O)[C@H](CC(N)=O)NC(=O)[C@H](CO)NC(=O)[C@H](CO)NC(=O)[C@H](CCCNC(=N)N)NC(=O)[C@@H](NC(=O)[C@H](CC(C)C)NC(=O)[C@H](Cc1ccccc1)NC(=O)[C@H](CC(N)=O)NC(=O)[C@H](C)NC(=O)[C@H](CC(C)C)NC(=O)[C@H](CCCNC(=N)N)NC(=O)[C@H](CCC(N)=O)NC(=O)[C@@H](NC(=O)[C@H](C)NC(=O)[C@@H]1CSSC[C@H](NC(=O)[C@@H](N)CCCCN)C(=O)N[C@@H](CC(N)=O)C(=O)N[C@@H]([C@@H](C)O)C(=O)N[C@@H](C)C(=O)N[C@@H]([C@@H](C)O)C(=O)N1)[C@@H](C)O)C(C)C)C(=O)NCC(=O)N1CCC[C@H]1C(=O)N[C@H](C(=O)N[C@@H](CC(C)C)C(=O)N1CCC[C@H]1C(=O)N1CCC[C@H]1C(=O)N[C@H](C(=O)N[C@@H](CC(N)=O)C(=O)N[C@H](C(=O)NCC(=O)N[C@@H](CO)C(=O)N[C@@H](CC(N)=O)C(=O)N[C@H](C(=O)N[C@@H](Cc1ccc(O)cc1)C(N)=O)[C@@H](C)O)C(C)C)[C@@H](C)O)C(C)C [rAmy] | 41 ± 4 | 28 ± 9 | 59 ± 10 | 42 ± 9 | 51 ± 7
5 | – | – | – | – | – | – | CC(C)C[C@H](NC(=O)[C@H](CCCCN)NC(=O)CNC(=O)[C@H](CC(C)C)NC(=O)[C@@H](NC(=O)[C@@H]1CSSC[C@H](N)C(=O)N[C@@H](CO)C(=O)N[C@@H](CC(N)=O)C(=O)N[C@@H](CC(C)C)C(=O)N[C@@H](CO)C(=O)N[C@@H]([C@@H](C)O)C(=O)N1)C(C)C)C(=O)N[C@@H](CO)C(=O)N[C@@H](CCC(N)=O)C(=O)N[C@@H](CCC(=O)O)C(=O)N[C@@H](CC(C)C)C(=O)N[C@@H](Cc1c[nH]cn1)C(=O)N[C@@H](CCCCN)C(=O)N[C@@H](CC(C)C)C(=O)N[C@@H](CCC(N)=O)C(=O)N[C@H](C(=O)N[C@@H](Cc1ccc(O)cc1)C(=O)N1CCC[C@H]1C(=O)N[C@@H](CCCNC(=N)N)C(=O)N[C@H](C(=O)N[C@@H](CC(N)=O)C(=O)N[C@H](C(=O)NCC(=O)N[C@@H](CO)C(=O)NCC(=O)N[C@H](C(=O)N1CCC[C@H]1C(N)=O)[C@@H](C)O)[C@@H](C)O)[C@@H](C)O)[C@@H](C)O [sCT] | 107 ± 5 | 95 ± 5 | 150 ± 8 | 125 ± 5 | 58 ± 4
